# Laboratory results reported in ChEMBL document CHEMBL1135152, “Design, synthesis, and SAR of monobenzamidines and aminoisoquinolines as factor Xa inhibitors” (Bioorg Med Chem Lett, 2002).
# Tests used:
# [1] = Bioavailability in rat; assay type: ADME, organism-based; settings: in vivo
# Coagulation factor X [2] = molecular target: T1, Coagulation factor X (Homo sapiens, UniProt P00742); experiment: Tested in vitro for the inhibitory activity against Coagulation factor Xa
# Plasminogen = Plasminogen (Homo sapiens, UniProt P00747); experiment: Tested in vitro for the inhibitory activity against plasmin
# [3] = molecular target: Vitamin K-dependent protein C (Homo sapiens, UniProt P04070); experiment: Tested in vitro for the inhibitory activity against activated protein C (APC)
# [4] = molecular target: Tissue-type plasminogen activator (Homo sapiens, UniProt P00750); experiment: Tested in vitro for the inhibitory activity against Tissue plasminogen activator (tissue plasminogen activator)
# Serine protease 1 = Serine protease 1 (Homo sapiens, UniProt P07477); experiment: Tested in vitro for the inhibitory activity against trypsin
# Prothrombin = Prothrombin (Homo sapiens, UniProt P00734); experiment: Tested in vitro for the inhibitory activity against thrombin
# Kallikrein-1 = Kallikrein-1 (Homo sapiens, UniProt P06870); experiment: Tested in vitro for the inhibitory activity against kallikrein
# Oryctolagus cuniculus = experiment: Tested for inhibition of thrombosis in rabbit deep vein model after intravenous administration at dosage of 2 mg/kg; assay type: functional
# Coagulation factor X [5] = molecular target: T1, Coagulation factor X; experiment: Tested in vitro for the inhibitory activity against Coagulation factor X
# [6] = Bioavailability in rat was reported at the dose of 6 mg/kg in 25% PEG-300; assay type: ADME, organism-based; settings: in vivo
# T1 sequence (P00742 41-179 limits assumed): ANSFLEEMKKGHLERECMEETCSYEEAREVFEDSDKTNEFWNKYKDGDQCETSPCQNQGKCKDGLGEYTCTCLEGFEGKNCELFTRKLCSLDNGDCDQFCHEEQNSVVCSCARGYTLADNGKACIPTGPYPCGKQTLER
# T1 sequence (P00742 235-488 limits assumed): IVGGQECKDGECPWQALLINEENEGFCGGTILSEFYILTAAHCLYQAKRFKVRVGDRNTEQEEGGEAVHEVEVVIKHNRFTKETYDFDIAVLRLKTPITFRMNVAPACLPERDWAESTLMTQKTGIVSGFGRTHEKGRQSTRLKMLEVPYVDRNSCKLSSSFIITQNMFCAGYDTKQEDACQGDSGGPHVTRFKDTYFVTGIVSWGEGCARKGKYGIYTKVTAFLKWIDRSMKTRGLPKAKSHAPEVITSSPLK
# Chain of Vitamin K-dependent protein C (P04070 43-197 limits assumed): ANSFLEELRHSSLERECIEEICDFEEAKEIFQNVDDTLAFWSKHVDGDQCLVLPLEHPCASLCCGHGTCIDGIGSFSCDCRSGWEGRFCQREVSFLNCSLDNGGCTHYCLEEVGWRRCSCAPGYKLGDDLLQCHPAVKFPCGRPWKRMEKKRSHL
# Chain of Vitamin K-dependent protein C (P04070 212-461 limits assumed): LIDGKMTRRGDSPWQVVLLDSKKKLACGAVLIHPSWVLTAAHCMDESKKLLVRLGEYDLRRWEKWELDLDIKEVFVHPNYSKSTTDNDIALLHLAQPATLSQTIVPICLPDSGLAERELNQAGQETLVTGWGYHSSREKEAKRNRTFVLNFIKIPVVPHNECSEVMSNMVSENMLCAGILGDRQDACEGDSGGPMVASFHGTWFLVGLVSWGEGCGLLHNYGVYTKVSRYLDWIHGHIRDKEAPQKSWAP
# Chain of Serine protease 1 (P07477 whole entry): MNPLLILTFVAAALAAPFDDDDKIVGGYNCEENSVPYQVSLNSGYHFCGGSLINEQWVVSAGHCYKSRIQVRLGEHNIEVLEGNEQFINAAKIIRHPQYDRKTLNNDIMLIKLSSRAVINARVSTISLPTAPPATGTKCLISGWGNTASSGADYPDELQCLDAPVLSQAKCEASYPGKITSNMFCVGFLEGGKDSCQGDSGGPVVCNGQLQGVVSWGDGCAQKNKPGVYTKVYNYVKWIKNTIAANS
# Chain of Kallikrein-1 (P06870 whole entry): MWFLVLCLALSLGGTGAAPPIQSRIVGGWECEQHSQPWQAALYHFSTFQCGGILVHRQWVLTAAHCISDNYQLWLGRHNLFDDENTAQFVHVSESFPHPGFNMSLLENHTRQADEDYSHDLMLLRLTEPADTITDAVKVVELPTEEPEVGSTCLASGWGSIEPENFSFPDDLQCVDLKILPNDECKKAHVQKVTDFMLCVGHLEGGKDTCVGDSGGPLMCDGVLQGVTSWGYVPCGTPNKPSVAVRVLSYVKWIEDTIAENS
# Chain of Plasminogen (P00747 97-580 limits assumed): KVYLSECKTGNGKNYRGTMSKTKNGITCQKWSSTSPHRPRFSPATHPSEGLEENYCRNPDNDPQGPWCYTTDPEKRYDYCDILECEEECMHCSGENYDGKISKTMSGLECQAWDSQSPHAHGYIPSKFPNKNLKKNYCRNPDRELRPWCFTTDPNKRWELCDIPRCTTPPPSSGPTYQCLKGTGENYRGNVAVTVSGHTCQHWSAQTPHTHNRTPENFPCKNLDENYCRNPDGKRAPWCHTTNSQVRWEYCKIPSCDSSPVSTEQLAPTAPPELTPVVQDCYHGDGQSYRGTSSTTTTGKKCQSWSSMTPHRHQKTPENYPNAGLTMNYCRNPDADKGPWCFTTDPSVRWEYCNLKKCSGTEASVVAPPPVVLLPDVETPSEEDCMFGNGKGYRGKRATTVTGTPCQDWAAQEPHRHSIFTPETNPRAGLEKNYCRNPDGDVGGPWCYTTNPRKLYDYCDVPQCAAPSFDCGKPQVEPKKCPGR
# Chain of Plasminogen (P00747 581-810 limits assumed): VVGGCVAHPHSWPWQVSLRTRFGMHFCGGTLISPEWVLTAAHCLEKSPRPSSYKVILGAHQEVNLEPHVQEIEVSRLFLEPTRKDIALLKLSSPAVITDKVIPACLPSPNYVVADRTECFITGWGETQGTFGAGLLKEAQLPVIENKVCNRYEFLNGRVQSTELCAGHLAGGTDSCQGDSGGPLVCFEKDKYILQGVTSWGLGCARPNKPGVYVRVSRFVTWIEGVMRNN
# Chain of Tissue-type plasminogen activator (P00750 whole entry): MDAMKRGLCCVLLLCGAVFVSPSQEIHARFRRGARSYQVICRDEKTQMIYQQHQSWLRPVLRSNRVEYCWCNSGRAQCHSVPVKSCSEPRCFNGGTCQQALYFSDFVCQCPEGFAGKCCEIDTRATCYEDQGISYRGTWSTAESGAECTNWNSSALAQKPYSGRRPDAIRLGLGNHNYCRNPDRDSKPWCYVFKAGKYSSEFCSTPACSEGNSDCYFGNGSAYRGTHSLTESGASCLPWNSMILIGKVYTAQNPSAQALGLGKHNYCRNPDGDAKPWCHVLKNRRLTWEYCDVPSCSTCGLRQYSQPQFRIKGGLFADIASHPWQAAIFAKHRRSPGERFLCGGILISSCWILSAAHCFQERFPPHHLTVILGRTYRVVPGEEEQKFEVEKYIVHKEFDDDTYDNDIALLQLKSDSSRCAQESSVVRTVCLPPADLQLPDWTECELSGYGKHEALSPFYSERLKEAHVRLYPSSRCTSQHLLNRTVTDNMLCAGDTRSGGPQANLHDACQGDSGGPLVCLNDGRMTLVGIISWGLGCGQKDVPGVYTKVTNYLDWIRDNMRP
IC50 (Coagulation factor X [2]) [nM],SMILES,further results
2.1,N=C(N)c1cccc(Oc2cc(Br)ccc2NC(=O)c2ccc(-c3ccccc3S(N)(=O)=O)cc2)c1,
7.8,N=C(N)c1cccc(OCCN(Cc2ccoc2)C(=O)c2ccc(-c3ccccc3S(N)(=O)=O)cc2)c1,
14,N=C(N)c1cccc(OCCN(Cc2ccccc2)C(=O)c2ccc(-c3ccccc3S(N)(=O)=O)cc2)c1,
3.6,N=C(N)c1cccc(Oc2ccccc2NC(=O)c2ccc(-c3ccccc3S(N)(=O)=O)cc2)c1,IC50 (Plasminogen): 43000 nM; IC50 [3]: > 181000 nM; IC50 [4]: 18000 nM; IC50 (Serine protease 1): 970 nM; IC50 (Prothrombin): > 11000 nM; IC50 (Kallikrein-1): 250 nM; inhibition in vivo at 2 mg/kg (Oryctolagus cuniculus): 41%
3.4,N=C(N)c1cccc(OCC(NC(=O)c2ccc(-c3ccccc3S(N)(=O)=O)cc2)c2ccccc2)c1 (stereo not given),
5.6,N=C(N)c1cccc(OCC(Cc2ccccc2)NC(=O)c2ccc(-c3ccccc3S(N)(=O)=O)cc2)c1 (stereo not given),
7.5,N=C(N)c1cccc(OCCNC(=O)c2ccc(-c3ccccc3S(N)(=O)=O)cc2)c1,IC50 (Plasminogen): 13000 nM; IC50 [3]: 3700 nM; IC50 [4]: 109000 nM; IC50 (Serine protease 1): 1200 nM; IC50 (Prothrombin): 321000 nM; IC50 (Kallikrein-1): 2100 nM
1.6,N=C(N)c1cccc(Oc2ccc(Br)cc2NC(=O)c2ccc(-c3ccccc3S(N)(=O)=O)cc2)c1,
34,N=C(N)c1cccc(OCCN(CC(=O)O)C(=O)c2ccc(-c3ccccc3S(N)(=O)=O)cc2)c1,
16,CC(COc1cccc(C(=N)N)c1)NC(=O)c1ccc(-c2ccccc2S(N)(=O)=O)cc1 (stereo not given),
11,N=C(N)c1cccc(OCCN(Cc2cccnc2)C(=O)c2ccc(-c3ccccc3S(N)(=O)=O)cc2)c1,
1.6,N=C(N)c1cccc(Oc2cc(Cl)ccc2NC(=O)c2ccc(-c3ccccc3S(N)(=O)=O)cc2)c1,
4.5,N=C(N)c1cccc(Oc2ccc(F)cc2NC(=O)c2ccc(-c3ccccc3S(N)(=O)=O)cc2)c1,
3.9,N=C(N)c1cccc(Oc2cc(O)ccc2NC(=O)c2ccc(-c3ccccc3S(N)(=O)=O)cc2)c1,
13,COC(=O)CN(CCOc1cccc(C(=N)N)c1)C(=O)c1ccc(-c2ccccc2S(N)(=O)=O)cc1,

# Second part, the compound before the results:
SMILES,IC50 (Coagulation factor X [2]) [nM],further results
N=C(N)c1cccc(Oc2ccc(C(=O)O)cc2NC(=O)c2ccc(-c3ccccc3S(N)(=O)=O)cc2)c1,,bioavailability [1]: 5.5%
N=C(N)c1cccc(Oc2ccc(Cl)cc2C(=O)Nc2ccc(-c3ccccc3S(N)(=O)=O)cc2)c1,7.7,
CC(=O)Nc1ccc(Oc2cccc(C(=N)N)c2)c(C(=O)Nc2ccc(-c3ccccc3S(N)(=O)=O)cc2)c1,7.7,
Nc1nccc2ccc(OCC(c3ccccc3)N3Cc4cc(-c5ccccc5S(N)(=O)=O)ccc4C3=O)cc12 (stereo not given),623,
Nc1nccc2ccc(OCC(Cc3ccccc3)N3Cc4cc(-c5ccccc5S(N)(=O)=O)ccc4C3=O)cc12 (stereo not given),226,
N=C(N)c1cccc(Oc2cc([N+](=O)[O-])ccc2C(=O)Nc2ccc(-c3ccccc3S(N)(=O)=O)cc2)c1,4.8,bioavailability [1]: 0.3%
N=C(N)c1cccc(Oc2cc(N)ccc2C(=O)Nc2ccc(-c3ccccc3S(N)(=O)=O)cc2)c1,19,
N=C(N)c1cccc(Oc2ccc(Br)cc2C(=O)Nc2ccc(-c3ccccc3S(N)(=O)=O)cc2)c1,4.4,
N=C(N)c1cccc(Oc2ccccc2C(=O)Nc2ccc(-c3ccccc3S(N)(=O)=O)cc2)c1,7.3,
Nc1nccc2ccc(Oc3ccc(F)cc3NC(=O)c3ccc(-c4ccccc4S(N)(=O)=O)cc3)cc12,1320,
N=C(N)c1cccc(OCCN2Cc3cc(-c4ccccc4S(N)(=O)=O)ccc3C2=O)c1,3.6,
N=C(N)c1cccc(Oc2cc(Br)ccc2C(=O)Nc2ccc(-c3ccccc3S(N)(=O)=O)cc2)c1,1.2,
N=C(N)c1cccc(Oc2cc(Cl)ccc2C(=O)Nc2ccc(-c3ccccc3S(N)(=O)=O)cc2)c1,1.5,
COc1ccc(NC(=O)c2ccc(-c3ccccc3S(N)(=O)=O)cc2)c(Oc2cccc(C(=N)N)c2)c1,1.6,
Cc1ccc(NC(=O)c2ccc(-c3ccccc3S(N)(=O)=O)cc2)c(Oc2cccc(C(=N)N)c2)c1,9.9,
CC(COc1ccc2ccnc(N)c2c1)N1Cc2cc(-c3ccccc3S(N)(=O)=O)ccc2C1=O (stereo not given),25,
CN(C)c1ccc(Oc2cccc(C(=N)N)c2)c(C(=O)Nc2ccc(-c3ccccc3S(N)(=O)=O)cc2)c1,10,
N=C(N)c1cccc(Oc2ccc([N+](=O)[O-])cc2C(=O)Nc2ccc(-c3ccccc3S(N)(=O)=O)cc2)c1,,IC50 (Coagulation factor X [5]): 1.9 nM
N=C(N)c1cccc(Oc2ccc(C(F)(F)F)cc2NC(=O)c2ccc(-c3ccccc3S(N)(=O)=O)cc2)c1,2.5,
N=C(N)c1cccc(Oc2ccc(N)cc2C(=O)Nc2ccc(-c3ccccc3S(N)(=O)=O)cc2)c1,12,
CS(=O)(=O)c1ccc(Oc2ccc3ccnc(N)c3c2)c(NC(=O)c2ccc(-c3ccccc3S(N)(=O)=O)cc2)c1,6060,
CC(=O)Nc1ccc(C(=O)Nc2ccc(-c3ccccc3S(N)(=O)=O)cc2)c(Oc2cccc(C(=N)N)c2)c1,61,
Nc1nccc2ccc(OCCN3Cc4cc(-c5ccccc5S(N)(=O)=O)ccc4C3=O)cc12,22,bioavailability [6]: < 5%
CS(=O)(=O)Nc1ccc(Oc2cccc(C(=N)N)c2)c(C(=O)Nc2ccc(-c3ccccc3S(N)(=O)=O)cc2)c1,5.4,
Nc1nccc2ccc(Oc3ccc(C(F)(F)F)cc3NC(=O)c3ccc(-c4ccccc4S(N)(=O)=O)cc3)cc12,1810,
Nc1nccc2ccc(Oc3ccccc3NC(=O)c3ccc(-c4ccccc4S(N)(=O)=O)cc3)cc12,646,
CN(C)c1ccc(C(=O)Nc2ccc(-c3ccccc3S(N)(=O)=O)cc2)c(Oc2cccc(C(=N)N)c2)c1,16,
COC(=O)c1ccc(Oc2cccc(C(=N)N)c2)c(NC(=O)c2ccc(-c3ccccc3S(N)(=O)=O)cc2)c1,2.5,
CNc1ccc(C(=O)Nc2ccc(-c3ccccc3S(N)(=O)=O)cc2)c(Oc2cccc(C(=N)N)c2)c1,12,
CS(=O)(=O)c1ccc(Oc2cccc(C(=N)N)c2)c(NC(=O)c2ccc(-c3ccccc3S(N)(=O)=O)cc2)c1,1.8,
